Earlier results on 1 compound are cited in US20250345336A1, “ALLOPURINOL ORAL SUSPENSION” (Extrovis AG, priority 2024, published 2025).

`Oc1ncnc2[nH]ncc12` [Allopurinol, 1,5-dihydro-4H-pyrazolo [3,4-d] pyrimidin-4-one]: the aqueous solubility result is on record as “poor aqueous solubility”.
